Experimental data taken from patent publication US20260069581A1, “METHODS AND COMPOSITIONS FOR CANCER THERAPY” (OHIO STATE INNOVATION FOUNDATION, priority 2020, published 2026).

Columns and labels:
[1] = system: MOLM13 and Kasumi-1 cell lines; assay: Annexin/PI flow cytometry apoptosis of shRNA-stable cells treated with KPT-9274; format: cell-based, human; conditions: KPT-9274 at sublethal IC20 dose, 48 hour
Text: FIGS. 2A-2M show show representative data for genetic depletion of HDAC8 or SIRT6 increases vulnerability of AML cell lines to KPT-9274 treatment. FIGS. 2A-2D show data for knockout efficiency of CDS- and 3′UTR-targeting shRNAs in MOLM13 and Kasumi-1 cells as assessed with Western blotting (FIGS. 2A, 2D) with GAPDH as a loading control. Densitometric quantification of protein band intensity is shown (n=2) in FIGS. 2B, 2E. FIGS. 2E-2H show representative data for depletion of HDAC8 or SIRT6 (as indicated in graphs) and sensitization of AML cell lines to KPT-9274 treatment. Dose-response curves of shRNA-stable MOLM13 and Kasumi-1 cells for 24-hour and 48-hour treatments are plotted. Cell viability was measured with MTS. […] Scrambled or gene-targeting shRNA-stable MOLM13 or Kasumi-1 cells were treated with IC20 dose of KPT-9274 for 48 hour and stained with Annexin/PI for flow cytometry analysis. Data are shown as mean±SEM of % population from duplicates. FIGS. 2K-2L show representative data that KPT-9274 attenuates AML self-renewal and induces myeloid differentiation in HDAC8 or SIRT6-depleted cells. Quantification of the number of colonies formed by shRNA-stable Kasumi-1 and MOLM13 cells in the presence or absence of KPT-9274 in CFU assays. Indicated number of cells were seeded into Methocult and colonies were counted and replated by a double-blind approach after 7 days. […]

PARP1 = assay: co-IP and western blotting of PARP1 mono-ADP-ribosylation; format: cell-based; conditions: eradicated by knockdown of SIRT6
Procedure: (§1) Thereafter, cells were fixed, permeabilized and stained with BV421 mouse anti-H2A.X (pS139) (Clone N1-431). Stained cells were analyzed by flow cytometry. Results are shown as mean±SEM of duplicates. *p<0.05. N.S.: not significant. […] Results are shown as mean±SEM of duplicates. *p<0.05. […] MOLM13 cells were treated with vehicle control, 0.4 μM or 0.8 μM AR-42 alone, 0.1 μM or 0.25 μM KPT-2974 alone and drug combination for 24 hours before being subject to Western blotting analysis of HR, NHEJ and ATM markers. GAPDH served as loading control. Results are representative of two independent experiments. In the FIG. the treatment concentrations, protein detected in the given Western blot, and molecular weight of the protein detected are as shown in the figure. […] Scrambled or shHDAC8-transduced MOLM13 cells were treated with vehicle, 0.1 μM or 0.25 μM KPT-2974 before being subject to immunoblotting analysis of DNA repair targets. GAPDH serves as loading control. Results are representative of two independent experiments. In the FIG. the treatment concentrations, protein detected in the given Western blot, and molecular weight of the protein detected are as shown in the figure. […] PAPR1 was immunoprecipitated and mono-ADP-ribosylation was detected by western blotting. […]
(§2) To elucidate the mechanism of the synergism between shSIRT6 and KPT-9274, the accumulation of phosph-H2A.X was measured. […]

SIRT6-depleted cells = assay: Phospho-H2A.X staining in shSIRT6 cells with KPT-9274; format: cell-based; conditions: SIRT6-depleted cells compared with scrambled control, in the presence of KPT-9274
Procedure: as §1, §2

[2] = In vivo MOLM13 xenograft study, toxicities and weight; design: species or system NCG mice; conditions: over the course of the study (FIG. 11B)
Text: FIG. 11A show H&E images of tissues obtained from MOLM13 xenograft mice that with the magnification and treatments as indicated in the figure. The images were representative of 3 different fields. […] FIG. 11B show weight change data of MOLM13 xenograft mice in response to different treatments.
In vivo MOLM13 xenograft study. All experiments were approved by the OSU Institutional Animal Care and Use Committee. Male NOD-Prkdc^em26cd52Il2rg^em26cd22/NjuCrl (NCG) mice (RRID:IMSR_CRL:572) (aged 6-8 weeks) were obtained from Charles River Laboratory. Mice were group-housed under conditions of constant photoperiod (12-hour light/12-hour dark), temperature, and humidity with adlibitum access to water and irradiated standard pelleted chow. […] luciferase-tagged MOLM13 cells were injected via tail vein into NCG mice. On day 5 post-engraftment, mice were randomized to receive placebo (vehicle; Karyopharm Therapeutics) once daily, 100 mg/kg of KPT-9274 (Karyopharm Therapeutics) once daily, 20 mg/kg AR-42 every another day and the combination of KPT-9274 and AR-42 via oral gavage. Overall survival was the primary end point for the majority of the mice. […] Mice were monitored by animal technicians who were blinded to the treatment groups and determined when mice met early removal criteria (20% weight loss, lethargy, hunching, and poor body condition). […]

Structure (SMILES): Nc1ccc(/C=C/C(=O)NCc2cc3cc(-c4ccc(C(=O)N5CCC(F)(F)CC5)cc4)cc(-c4ccc(F)cc4)c3o2)cn1 [KPT-9274, (E)-3-(6-aminopyridin-3-yl)-N-[[5-[4-(4,4-difluoropiperidine-1-carbonyl)phenyl]-7-(4-fluorophenyl)-1-benzofuran-2-yl]methyl]prop-2-enamide]
- percentage of apoptotic cells ([1]; HDAC8 depletion): significantly increase
- apoptosis of AML cells ([1]; SIRT6 depletion): enhance apoptosis
- mono-ADP-ribosylation of PARP1 (PARP1): enhanced
- DNA damage, phospho-H2A.X staining (SIRT6-depleted cells): increased phospho-H2A.X staining

Structure (SMILES): CC(C)[C@H](C(=O)Nc1ccc(C(=O)NO)cc1)c1ccccc1 [AR-42, (S)—N-Hydroxy-4-(3-methyl-2-phenylbutanamido)benzamide]
- weight loss [2]: did not observe any noticeable weight loss
